Source: publication PMC9794833, “Ligand recognition and activation of neuromedin U receptor 2” (Nature Communications, 2022)
Values joined by “and” are separate entries in the source; they are usually repeats but may differ in a detail not shown here. Equal values may be shown once. Read-outs that look alike come from different tables or passages of the source. Where a SMILES comes first, the peptide text is derived from it. [ ]: non-standard residue; d: D form. The star is where a group is joined. Propanoyl(3-cHex) = O=C(CCC1CCCCC1)*; Dap = NC[C@H](N)C(=O)O

What was measured:
NMU2 A302H = biological target: T1, NMU2 A302H (Homo sapiens, UniProt Q9GZQ4, A302H); experiment: TRUPATH assay, NMU2 mutant A302H; type: cell-based
T1 construct: HA signal peptide (N); expressed in transfected cells; host or cells: HEK 293F
T1 sequence (Q9GZQ4 whole entry A302H): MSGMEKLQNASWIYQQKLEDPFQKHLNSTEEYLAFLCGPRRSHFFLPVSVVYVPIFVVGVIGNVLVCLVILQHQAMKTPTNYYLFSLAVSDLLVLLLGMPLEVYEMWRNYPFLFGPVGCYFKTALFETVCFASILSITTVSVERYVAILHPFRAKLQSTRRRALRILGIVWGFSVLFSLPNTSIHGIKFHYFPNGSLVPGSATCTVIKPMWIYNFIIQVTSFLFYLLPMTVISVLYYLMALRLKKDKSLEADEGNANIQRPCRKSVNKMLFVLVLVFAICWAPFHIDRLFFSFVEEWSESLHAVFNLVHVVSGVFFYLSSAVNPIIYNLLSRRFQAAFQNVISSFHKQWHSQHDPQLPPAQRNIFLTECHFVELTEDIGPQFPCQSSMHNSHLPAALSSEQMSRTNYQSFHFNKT
Description: (§1) The plasmids of Gαi1, Gβ3, and Gγ9 used for the TRUPATH assay were purchased from Addgene (TRUPATH Kit, #1000000163). NMU2 constructs of WT and mutants were constructed into a PTT5 vector (Invitrogen) with an N-terminal HA signal peptide followed by a Flag tag. HEK 293F cells were transiently transfected with WT or mutants of NMU2, Gαi1, Gβ3, and Gγ9 at an […] ratio of 4:1:1:1 with a total of 3500 ng plasmid DNA using a transfection reagent (PEI MAX 2000, Polysciences) and cultivated at 37 °C with 5 % CO2. Cells were collected after 48-h transfection. The expression level of the receptor was measured by incubating 10 μl cells with 15 μl TBS buffer supplemented with 4% bovine serum albumin, 20% (v/v) viability staining solution7-AAD (Invitrogen, Cat#00-6993-50), and ANTI-FLAG M2-FITC antibody (Sigma, F4049; 1:100 diluted by TBS) at 4 °C for 20 min. After incubation, 175 μl TBS buffer was added, and the fluorescence signal on the cell surface was detected by an FCM (flow cytometry) reader (Millipore). The cells were diluted with 1× HBSS (Hank’s balanced salt solution) balanced buffer supplemented with 25 mM HEPES, pH 7.4, and seeded onto the 96-well opaque cell culture plates (Beyotime) at a density of 18,000 cells per well by 60 μl. Freshly prepared 50 μM coelenterazine 400a (Nanolight Technologies) was added into the well by 10 μl. After a 5 min equilibration time in the darkness, plates were then read in a Synerg^TM H1 microplate reader (BioTek) with excitation at 395 nm and emission at 410 and 515 nm by serially three times. Then, 30 μl of 3.3× agonists were added into the wells with a gradient final concentration from 10^−4–10^−13 M. Plates were read immediately again by serially five times. Data were processed and analyzed following the method in the literature by using GraphPad Prism 8.0.

NMU1 = tested on: NMU1; parameters: method as in PMID 24999562, PMID 25815150, PMID 28548497; details: cited from earlier work
NMU2 N306Q = biological target: T2, NMU2 N306Q (Homo sapiens, UniProt Q9GZQ4, N306Q); experiment: TRUPATH assay, NMU2 mutant N306Q; type: cell-based
T2 construct: HA signal peptide (N); expressed in transfected cells; host or cells: HEK 293F
T2 sequence (Q9GZQ4 whole entry N306Q): as the sequence (Q9GZQ4 whole entry A302H) above, with H302A, N306Q counted along it
Description: as §1

NMU2 N306W = biological target: T3, NMU2 N306W (Homo sapiens, UniProt Q9GZQ4, N306W); experiment: TRUPATH assay, NMU2 mutant N306W; type: cell-based
T3 construct: HA signal peptide (N); expressed in transfected cells; host or cells: HEK 293F
T3 sequence (Q9GZQ4 whole entry N306W): as the sequence (Q9GZQ4 whole entry A302H) above, with H302A, N306W counted along it
Description: as §1

NMU2 [1] = biological target: T4, NMU2 (Homo sapiens, UniProt Q9GZQ4); parameters: method as in PMID 24999562, PMID 25815150, PMID 28548497; details: potency for NMU2; cited from earlier work
T4 construct: HA signal peptide (N); expressed in transfected cells; host or cells: HEK 293F
T4 sequence (Q9GZQ4 whole entry): as the sequence (Q9GZQ4 whole entry A302H) above, with H302A counted along it

NMU2 H43E = biological target: T5, NMU2 H43E (Homo sapiens, UniProt Q9GZQ4, H43E); experiment: TRUPATH assay, NMU2 mutant H43E; type: cell-based; details: H43E
T5 construct: HA signal peptide (N); expressed in transfected cells; host or cells: HEK 293F
T5 sequence (Q9GZQ4 whole entry H43E): as the sequence (Q9GZQ4 whole entry A302H) above, with H43E, H302A counted along it
Description: as §1

NMU2 [2] = biological target: T4, NMU2; experiment: TRUPATH Gαi1βγ biosensor assay, WT NMU2; type: cell-based; details: WT; for CPN 116–induced G protein activation of NMU2: single replicates, in % (unit assumed)
Description: as §1

NMU2 H43W = biological target: T6, NMU2 H43W (Homo sapiens, UniProt Q9GZQ4, H43W); experiment: TRUPATH assay, NMU2 mutant H43W; type: cell-based
T6 construct: HA signal peptide (N); expressed in transfected cells; host or cells: HEK 293F
T6 sequence (Q9GZQ4 whole entry H43W): as the sequence (Q9GZQ4 whole entry A302H) above, with H43W, H302A counted along it
Description: as §1

[3] = read-out: pEC50 mean±SEM (converted)
[4] = earlier manuscript version, peer review file

- EC50 ratio EC50(mutant)/EC50(WT) (NMU2 A302H): 10
- Span (window between Emax and minimal agonist response) (NMU2 A302H): 57±12 % of WT
- EC50 (NMU2 A302H; read-out: EC50): 0.89 µM
- EC50 (NMU2 A302H; [3]): 0.891 µM
- EC50 ratio EC50(mutant)/EC50(WT) (NMU2 N306Q): 34 and ~30
- Span (window between Emax and minimal agonist response) (NMU2 N306Q): 103±8 % of WT
- reduction of potency (NMU2 N306Q; [4]): about 40 fold
- EC50 (NMU2 N306Q; read-out: EC50): 3.03 µM
- EC50 (NMU2 N306Q; [3]): 3.02 µM
- CPN 116–induced G protein activation of NMU2 (NMU2 N306W; Log [CPN 116] M -4, single replicates): -39.3918 and -40.1037 and -18.108
- CPN 116–induced G protein activation of NMU2 (NMU2 N306W; Log [CPN 116] M -5, single replicates): -35.463 and -12.1167 and -20.5536
- CPN 116–induced G protein activation of NMU2 (NMU2 N306W; Log [CPN 116] M -6, single replicates): -13.9347 and -29.6651
- CPN 116–induced G protein activation of NMU2 (NMU2 N306W; Log [CPN 116] M -7, single replicates): -42.0373 and -15.8433 and -22.9653
- CPN 116–induced G protein activation of NMU2 (NMU2 N306W; Log [CPN 116] M -8, single replicates): -43.5336 and -18.6278
- CPN 116–induced G protein activation of NMU2 (NMU2 N306W; Log [CPN 116] M -9, single replicates): -58.7333 and -19.6009 and -22.809
- CPN 116–induced G protein activation of NMU2 (NMU2 N306W; Log [CPN 116] M -10, single replicates): -49.0206 and -44.7808 and -17.6453
- CPN 116–induced G protein activation of NMU2 (NMU2 N306W; Log [CPN 116] M -11, single replicates): -6.043 and -10.0645 and -20.5889
- EC50 ratio EC50(mutant)/EC50(WT) (NMU2 H43E): 34 and ~30
- Span (window between Emax and minimal agonist response) (NMU2 H43E): 68±10 % of WT
- G protein activation (TRUPATH), dose-response point (NMU2 H43E; Log [agonist] M -4): 54.8659 and 69.4702 and 83.0554
- reduction of potency (NMU2 H43E; [4]): about 40 fold
- EC50 (NMU2 H43E; read-out: EC50): 3.01 µM
- EC50 (NMU2 H43E; [3]): 3.02 µM
- EC50 ratio EC50(mutant)/EC50(WT) (NMU2 [2]): 1
- Span (window between Emax and minimal agonist response) (NMU2 [2]): 100±5 % of WT
- EC50 (NMU2 [2]; agonist-induced G protein activation, HEK 293F, read-out: EC50): 0.088 µM
- EC50 (NMU2 [2]; [3]): 0.0891 µM
- EC50 ratio EC50(mutant)/EC50(WT) (NMU2 H43W): 4
- Span (window between Emax and minimal agonist response) (NMU2 H43W): 113±8 % of WT
- EC50 (NMU2 H43W; read-out: EC50): 0.328 µM
- EC50 (NMU2 H43W; [3]): 0.331 µM
Compound: CC(C)C[C@H](NC(=O)CCC1CCCCC1)C(=O)N[C@@H](CC(C)C)C(=O)N[C@@H](CN)C(=O)N1CCC[C@H]1C(=O)N[C@@H](CCCNC(=N)N)C(=O)N[C@@H](CC(N)=O)C(N)=O [CPN 116] ({Propanoyl(3-cHex)}-LL[Dap]PRN-NH2; N-terminus assumed)
- activation of NMU1 (NMU1): without obvious activation of NMU1
- G protein activation (TRUPATH), dose-response point (NMU2 N306Q; Log [agonist] M -4): 92.4083 and 98.1528 and 132.361 and 88.4481
- G protein activation (TRUPATH), dose-response point (NMU2 N306Q; Log [agonist] M -5): 86.2104 and 99.9961 and 102.907 and 71.1922
- EC50 (NMU2 [1]): 0.0066 µM
- CPN 116–induced G protein activation of NMU2 (NMU2 [2]; Log [CPN 116] M -4): 124.271 and 109.389 and 104.836 and 98.7874 and 114.415 and 92.1354 and 98.8516 and 96.9846 and 129.092
- CPN 116–induced G protein activation of NMU2 (NMU2 [2]; Log [CPN 116] M -5): 81.0668 and 90.6105 and 83.9029 and 70.7281 and 97.1643 and 105.033 and 97.1976 and 102.389 and 91.9125
- CPN 116–induced G protein activation of NMU2 (NMU2 [2]; Log [CPN 116] M -6): 123.537 and 69.0158 and 98.755 and 109.275 and 101.527 and 90.1601 and 88.5457 and 99.457 and 76.0968 and 66.3324
- CPN 116–induced G protein activation of NMU2 (NMU2 [2]; Log [CPN 116] M -7): 58.8924 and 38.0271 and 51.0097 and 20.9117 and 20.6245 and 99.7769 and 42.6311 and 75.7485 and 28.5134 and 61.3823
- CPN 116–induced G protein activation of NMU2 (NMU2 [2]; Log [CPN 116] M -8): 61.8786 and 27.1582 and 20.07 and 29.5038 and 13.1206 and 29.1828 and -9.383 and 21.3054 and 11.8363 and 17.7072
- CPN 116–induced G protein activation of NMU2 (NMU2 [2]; Log [CPN 116] M -9): 19.9062 and -6.919 and 9.364 and -2.803 and 20.3603 and -10.3226 and 21.8665 and -7.72 and -11.2532 and 17.6747
- CPN 116–induced G protein activation of NMU2 (NMU2 [2]; Log [CPN 116] M -10): 41.8708 and 6.201 and -13.4099 and 3.958 and 1.871 and 13.514 and 0.4422 and 6.532 and 9.793 and -10.7717
- CPN 116–induced G protein activation of NMU2 (NMU2 [2]; Log [CPN 116] M -11): -45.0449 and -20.5889 and -0.1978 and -15.7237 and -24.3777 and 3.048 and -8.327 and 4.148 and -6.043 and -10.0645
- G protein activation (TRUPATH), dose-response point (NMU2 H43W; Log [agonist] M -4): 70.3208 and 118.253 and 100.643 and 93.456
- G protein activation (TRUPATH), dose-response point (NMU2 H43W; Log [agonist] M -5): 117.081 and 116.835 and 123.722 and 102.53
